Measurements taken from article PMC12410356 (International Journal for Parasitology: Drugs and Drug …, 2025).

Key:
[1] = system: E. multilocularis metacestode vesicles; assay: Phosphoglucose isomerase (PGI) release assay (damage-marker release) on metacestode vesicles; format: cell-based, Echinococcus multilocularis; details: 10 μM; for PGI d5 (relative PGI release): 5 days; for PGI d12 (relative PGI release): 12 days
[2] = system: E. multilocularis metacestode vesicles; assay: Metacestode vesicle viability assay (ATP, CellTiter-Glo); format: cell-based, Echinococcus multilocularis
Experimental: Viability was assessed after 12 days using the same metacestode vesicles as for the PGI release assay. Triton X-100 was added to each well to a final concentration of 0.1 %. Subsequently the metacestode vesicles were broken mechanically and 50 μL of the supernatant was mixed with 50 μL of CellTiter-Glo® buffer (Promega, Dübendorf, Switzerland). Measurements were performed on a HIDEX Sense microplate reader.

[3] = overview screen, singlets, relative to 0.1 % Triton X-100, DMSO subtracted
[4] = overview screen, 10 μM, singlets, 12 days, relative to DMSO control
[5] = confirmation screen, triplicates, mean
[6] = confirmation screen, 10 μM, triplicates, mean, 12 days

## CCCCCCCc1[nH]c2ccccc2c(=O)c1O [MMV1578561]
[1]; [3]
  PGI d5 (relative PGI release): -1.205%
  PGI d12 (relative PGI release): -12.6441%
[2]; [4]
  Viability d12 (relative viability): 124.494%

## O=S(=O)(Nc1ccccc1)c1ccc(NC(=S)Nc2ccccc2)cc1 [MMV1578562]
[1]; [3]
  PGI d5 (relative PGI release): -3.292%
  PGI d12 (relative PGI release): -3.243%
[2]; [4]
  Viability d12 (relative viability): 118.128%

## Fc1ccc2c(/C=C/c3nnn[nH]3)c[nH]c2c1 [MMV1578563]
[1]; [3]
  PGI d5 (relative PGI release): -0.5513%
  PGI d12 (relative PGI release): -11.8723%
[2]; [4]
  Viability d12 (relative viability): 20.2898%

## CCc1cc(O)c(Oc2ccc(C(N)=O)cc2F)cc1F [MMV1578564]
[1]; [3]
  PGI d5 (relative PGI release): 19.4124%
  PGI d12 (relative PGI release): -2.538%
[2]; [4]
  Viability d12 (relative viability): 125.644%

## CSC[C@H]1CN(Cc2c[nH]c3c(N)ncnc23)C[C@@H]1O [MMV1578565]
[1]; [3]
  PGI d5 (relative PGI release): -1.805%
  PGI d12 (relative PGI release): -12.574%
[2]; [4]
  Viability d12 (relative viability): 59.0324%

## NC[C@H]1OB(O)c2c(OCCCO)cccc21 [MMV1578566]
[1]; [3]
  PGI d5 (relative PGI release): 0.6057%
  PGI d12 (relative PGI release): -3.009%
[2]; [4]
  Viability d12 (relative viability): 7.765%

## O=c1ccc2ncc(=O)n3c2n1CC3CN1CCC(NCc2cc3c(cn2)OCCC3)CC1 (stereo not drawn) [MMV1578568]
[1]; [3]
  PGI d5 (relative PGI release): -2.295%
  PGI d12 (relative PGI release): -8.489%
[2]; [4]
  Viability d12 (relative viability): 53.1876%

## O=C1NC(=S)N/C1=C\c1cc(Br)cc(Br)c1O [MMV1578569]
[1]; [3]
  PGI d5 (relative PGI release): 1.516%
  PGI d12 (relative PGI release): -5.575%
[2]; [4]
  Viability d12 (relative viability): 64.4597%

## CCC(C)NCC(O)Cn1c2ccc(Cl)cc2c2cc(Cl)ccc21 (stereo not drawn) [MMV1578570]
[1]; [5]
  PGI d5 (relative PGI release): -0.08%
  PGI d12 (relative PGI release): 0.27%
[1]; [3]
  PGI d5 (relative PGI release): 90.467%
  PGI d12 (relative PGI release): 70.4859%
[2]; [6]
  Viability d12 (relative viability): 94.06%
[2]; [4]
  Viability d12 (relative viability): 22.9025%

## COc1cc(NC(=O)CN2C(=O)NC(c3ccccc3)(c3ccccc3)C2=O)cc(OC)c1 [MMV1578572]
[1]; [3]
  PGI d5 (relative PGI release): -1.463%
  PGI d12 (relative PGI release): -23.3736%
[2]; [4]
  Viability d12 (relative viability): 61.4538%

## COc1ccc(SCC(=O)N2c3ccccc3Sc3ccccc32)cc1 [MMV1578573]
[1]; [3]
  PGI d5 (relative PGI release): -3.455%
  PGI d12 (relative PGI release): -10.5042%
[2]; [4]
  Viability d12 (relative viability): 50.7662%

## CN(C)[C@@H]1C(=O)C(C(N)=O)=C(O)[C@@]2(O)C(=O)C3=C(O)c4c(O)c(NC(=O)CN5CCCC5)cc(F)c4C[C@H]3C[C@@H]12.Cl.Cl [MMV1578574]
[1]; [3]
  PGI d5 (relative PGI release): -1.676%
  PGI d12 (relative PGI release): -12.2407%
[2]; [4]
  Viability d12 (relative viability): 18.1189%

## CC(=O)O[C@H]1C[C@@]2(C)[C@@H](C[C@@H](O)[C@H]3[C@@]4(C)CC[C@@H](O)[C@@H](C)[C@@H]4CC[C@@]32C)/C1=C(\CCC=C(C)C)C(=O)O [MMV1578575]
[1]; [3]
  PGI d5 (relative PGI release): 2.315%
  PGI d12 (relative PGI release): -12.4921%
[2]; 10 µM
  Viability d12 (relative viability): 144.199%

## O=C(Cc1ccccc1F)Nc1nc2ccccc2[nH]1 [MMV1578576]
[1]; [5]
  PGI d5 (relative PGI release): 0.17%
  PGI d12 (relative PGI release): 0.0454%
[1]; [3]
  PGI d5 (relative PGI release): 4.048%
  PGI d12 (relative PGI release): 84.4551%
[2]; [6]
  Viability d12 (relative viability): 92.12%
[2]; [4]
  Viability d12 (relative viability): 28.1158%

## O=C(NC12CC3CC(CC(C3)C1)C2)c1cc2ccccc2[nH]1 [MMV1578577]
[1]; [3]
  PGI d5 (relative PGI release): -0.2186%
  PGI d12 (relative PGI release): -2.179%
[2]; [4]
  Viability d12 (relative viability): 82.8787%

## O=C(Nc1nnc(-c2ccccc2)o1)c1ccc(F)cc1 [MMV1578578]
[1]; [3]
  PGI d5 (relative PGI release): -0.5299%
  PGI d12 (relative PGI release): 45.2443%
[2]; [4]
  Viability d12 (relative viability): 33.8998%

## COc1ccc(C)cc1NC(=O)c1ccc(S(=O)(=O)N2CCCCC2)cc1 [MMV1578579]
[1]; [3]
  PGI d5 (relative PGI release): -1.553%
  PGI d12 (relative PGI release): -13.2873%
[2]; [4]
  Viability d12 (relative viability): 52.1022%

## CCCCOC(=O)Nc1cc2nc(C3CCCCC3)[nH]c2cc1N(CC)CC [MMV1578842]
[1]; [5]
  PGI d5 (relative PGI release): -0.74%
  PGI d12 (relative PGI release): 0.24%
[1]; [3]
  PGI d5 (relative PGI release): 1.645%
  PGI d12 (relative PGI release): 57.0254%
[2]; [6]
  Viability d12 (relative viability): 57.98%
[2]; [4]
  Viability d12 (relative viability): 6.68%

## O=c1cc(NCCCN[C@@H]2CCOc3c(Br)cc(Br)cc32)[nH]c2ccsc12 [MMV1578884]
[1]; [3]
  PGI d5 (relative PGI release): 13.7393%
  PGI d12 (relative PGI release): 54.0946%
[2]; [4]
  Viability d12 (relative viability): 55.812%

## O=c1nc(N2CCN(CC3CCCCC3)CC2)sc2c([N+](=O)[O-])cc(C(F)(F)F)cc12 [MMV1578885]
[1]; [5]
  PGI d5 (relative PGI release): -0.21%
  PGI d12 (relative PGI release): 0.0323%
[1]; [3]
  PGI d5 (relative PGI release): 15.7367%
  PGI d12 (relative PGI release): 89.9274%
[2]; [6]
  Viability d12 (relative viability): 97.20%
[2]; [4]
  Viability d12 (relative viability): 20.6104%

## c1ccc(Cn2c(-c3ccccn3)nc3ccccc32)cc1 [MMV1578886]
[1]; [5]
  PGI d5 (relative PGI release): -0.18%
  PGI d12 (relative PGI release): -0.24%
[1]; [3]
  PGI d5 (relative PGI release): -1.473%
  PGI d12 (relative PGI release): 58.1597%
[2]; [6]
  Viability d12 (relative viability): 94.29%
[2]; [4]
  Viability d12 (relative viability): 16.9499%

## Fc1ccc2c(/C=C/c3cccnc3)c[nH]c2c1 [MMV1578889]
[1]; [3]
  PGI d5 (relative PGI release): -2.006%
  PGI d12 (relative PGI release): 1.559%
[2]; [4]
  Viability d12 (relative viability): 96.8566%

## O=S(=O)(Nc1cccc2cccnc12)c1ccccc1 [MMV1578890]
[1]; [5]
  PGI d5 (relative PGI release): 0.50%
  PGI d12 (relative PGI release): -0.0456%
[1]; [3]
  PGI d5 (relative PGI release): 53.5139%
  PGI d12 (relative PGI release): 49.7638%
[2]; [6]
  Viability d12 (relative viability): 68.64%
[2]; [4]
  Viability d12 (relative viability): 2.254%

## O=C(Cn1cnc2ccccc2c1=O)Nc1ccccc1 [MMV1578891]
[1]; [3]
  PGI d5 (relative PGI release): -0.325%
  PGI d12 (relative PGI release): -3.282%
[2]; [4]
  Viability d12 (relative viability): 139.913%

## CCOC(=O)N1CCN(c2ccc(Cl)cc2)CC1 [MMV1578898]
[1]; [3]
  PGI d5 (relative PGI release): -0.03171%
  PGI d12 (relative PGI release): 1.172%
[2]; [4]
  Viability d12 (relative viability): 47.7603%

## CCCC(=O)OCCc1ccccc1 [MMV1578899]
[1]; [3]
  PGI d5 (relative PGI release): -0.4977%
  PGI d12 (relative PGI release): -12.5447%
[2]; [4]
  Viability d12 (relative viability): 64.2092%

## C=C(C)n1c(=O)n(Cc2ccccc2C)c2ccccc21 [MMV1579354]
[1]; [5]
  PGI d5 (relative PGI release): -0.0635%
  PGI d12 (relative PGI release): 0.33%
[1]; [3]
  PGI d5 (relative PGI release): 29.5855%
  PGI d12 (relative PGI release): 93.1874%
[2]; [6]
  Viability d12 (relative viability): 130.19%
[2]; [4]
  Viability d12 (relative viability): 10.0196%

## O=c1cc(OCc2ccccc2)ccn1Cc1ccccc1 [MMV1579775]
[1]; [3]
  PGI d5 (relative PGI release): -1.928%
  PGI d12 (relative PGI release): -10.779%
[2]; [4]
  Viability d12 (relative viability): 63.3743%

## NS(=O)(=O)c1ccc(NC(=O)NC(c2ccccc2)c2ccccc2)cc1 [MMV1579776]
[1]; [5]
  PGI d5 (relative PGI release): -0.15%
  PGI d12 (relative PGI release): -0.30%
[1]; [3]
  PGI d5 (relative PGI release): -0.6102%
  PGI d12 (relative PGI release): 61.5508%
[2]; [6]
  Viability d12 (relative viability): 80.00%
[2]; [4]
  Viability d12 (relative viability): 8.5167%

## O=[N+]([O-])c1cn(Cc2nc(O)nc(O)c2Br)cn1 [MMV1579777]
[1]; [3]
  PGI d5 (relative PGI release): -0.845%
  PGI d12 (relative PGI release): -7.383%
[2]; [4]
  Viability d12 (relative viability): 93.1599%

## C[C@H](NC(CC(=O)c1ccccc1C(F)(F)F)C(=O)O)c1ccccc1 (stereo partly drawn) [MMV1579778]
[1]; [3]
  PGI d5 (relative PGI release): -3.315%
  PGI d12 (relative PGI release): -4.896%
[2]; [4]
  Viability d12 (relative viability): 114.059%

## CC(=O)Nc1cc(NS(=O)(=O)c2ccc(Cl)cc2)cc2c(Cl)n[nH]c12 [MMV1579779]
[1]; [3]
  PGI d5 (relative PGI release): 1.247%
  PGI d12 (relative PGI release): 30.3469%
[2]; [4]
  Viability d12 (relative viability): 88.2086%

## CC(C)n1cnc2c(NCc3ccccc3)nc(NCc3ccccc3)nc21 [MMV1579780]
[1]; [3]
  PGI d5 (relative PGI release): 13.6684%
  PGI d12 (relative PGI release): 58.0803%
[2]; [4]
  Viability d12 (relative viability): 34.6202%
